The data set is described as follows: Particle size distribution of precipitated cilostazol particles. It counts as physicochemical. Particulars: filtered, dried. The protocol: A hot solution (70-75° C.) of cilostazol (23 g) in 1-methyl-2-pyrrolidinone (69 mL) was slowly added over a period of 5-10 min into water (345 mL) at 0-5° C. with stirring. The suspension was stirred at 0-5° C. for 1-2 hrs, filtered and rinsed with water (40 mL) and methanol (20 mL). The solid was dried under vacuum at 55-60° C. to give 22.1 g (yield 96%) cilostazol as a white powder. Particle size distribution: d(0.1)=0.71 micrometres, d(0.5)=5.94 mircrometres, d(0.9)=30.59 micrometres.
A hot solution (70-75° C.) of cilostazol (20 g) in 1-methyl-2-pyrrolidinone (40 mL) was slowly added over a period of 5-10 min into toluene (250 mL) at 0-5° C. with stirring. The suspension was stirred at 0-5° C. for 1-2 hrs, filtered and rinsed with toluene (100 mL). The solid was dried under vacuum at 55-60° C. to give 18.2 g (yield 91%) cilostazol as a white powder. Particle size distribution: d(0.1)=0.80 micrometres, d(0.5)=3.90 mircrometres, d(0.9)=25.56 micrometres.

Where [1] appears, read: Example 2: hot 1-methyl-2-pyrrolidinone solution added into water at 0-5° C.
The mark [2] stands for this setting: Example 3: hot 1-methyl-2-pyrrolidinone solution added into toluene at 0-5° C.

Molecules are shown by their SMILES.

As to `O=C1CCc2cc(OCCCCc3nnnn3C3CCCCC3)ccc2N1` [cilostazol, 6-[4-(1-cyclohexyl-1H-tetrazol-5-yl)butoxy]-3,4-dihydro-2(1H)-quinolinone], under setting [1], the “Particle size distribution d(0.1)” value stood at 0.71 micrometres, the “Particle size distribution d(0.5)” value came to 5.94 mircrometres and the “Particle size distribution d(0.9)” value amounted to 30.59 micrometres. For the same compound, under setting [2], the “Particle size distribution d(0.1)” value is reported as 0.80 micrometres, the “Particle size distribution d(0.5)” value is given as 3.90 mircrometres and the “Particle size distribution d(0.9)” value was 25.56 micrometres.

These data come from patent US20070105898A1, “Process for the production of cilostazol” (Apotex Pharmachem Inc., priority 2005, published 2007).
